From US11578084B2, “Condensed ring compounds having dopamine D3 receptor antagonistic effect” (Shionogi & Co., Ltd., priority 2018, dated 2023)
Like-named read-outs stand apart in the source and are kept apart here.

What was measured:
[1] = biological target: human recombinant dopamine D2 receptor (Homo sapiens (Human), UniProt P14416); assay: Test of binding inhibition for dopamine D2 receptor ([3H]-Methylspiperone SPA); settings: Jump-In HEK cell membranes, read-out: hD2_Ki
Protocol: (§1) (Experimental Conditions)
Cell membranes: Jump-In HEK cell membranes expressing human recombinant dopamine D2 receptor (2 μg/well)
(§2) Non-specific ligand: (final concentration) 10 μM Butaclamol [(+)-Butaclamol Hydrochloride, D033, Sigma]
(§3) SPA beads solution: SPA beads [WGA PVT SPA Scintillation Beads, RPNQ0001 (500 mg), RPNQ0060 (2 g), PerkinElmer] (0.2 mg/well)
(§4) Incubation time and temperature: 120 min at 25° C.
(§5) Butaclamol or the compounds of the present invention were weighed and DMSO was added to make a 10 mM solution. This solution was diluted to each concentration.
(§6) SPA beads were weighed and stirred in water to make a 50 mg/mL solution. Using this solution, a mixture with the cell membranes was prepared.
Jump-In HEK Cell membranes (final reaction amount: 2 μg protein/well), the SPA beads solution (final reaction amount: 0.2 mg/well) and the buffer solution were mixed, and the mixed solution was left still for 1 hour or more at 4° C. Then, 50 μL of the mixture was added to each well of the plate. […] Non-specific binding was calculated based on the radioactivity of [^3H]-Methylspiperone in the presence of 10 μM non-labeled Butaclamol. The total binding was calculated using the radioactivity of [^3H]-Methylspiperone in the absence of the compounds of the present invention (Vehicle). The Ki values were calculated from dose-response curves.
(§7) Binding activities of the compounds of the present invention were calculated from the following Binding Inhibition Rate (%): Inhibition Rate (%)=[1−(c−a)/(b−a)]×100 • a: Average cpm of non-specific binding • b: Average cpm of total binding • c: Cpm in the presence of each test compound

[2] = biological target: human recombinant dopamine D3 receptor (Homo sapiens (Human), UniProt P35462); assay: Test of binding inhibition for dopamine D3 receptor ([3H]-Methylspiperone SPA); settings: Jump-In HEK cell membranes, 2 nM [3H]-Methylspiperone, 120 min at 25° C.; read-out: hD3_Ki
Protocol: as §1
Cell membranes: Jump-In HEK cell membranes expressing human recombinant dopamine D3 receptor (4 μg/well)
as §2, §3, §4, §5
[^3H]-Methylspiperone was weighed and the buffer solution was added to make a 6 nM solution.
as §6
Jump-In HEK Cell membranes (final reaction amount: 4 μg protein/well), the SPA beads solution (final reaction amount: 0.2 mg/well) and the buffer solution were mixed and the mixed solution was left still for 1 hour or more at 4° C. Then, 50 μL of the mixture was added to each well of the plate. In addition, 25 μL of 6 nM [^3H]-Methylspiperone (final concentration: 2 nM) was added to each well. […] Non-specific binding was calculated based on the radioactivity of [^3H]-Methylspiperone in the presence of 10 μM non-labeled Butaclamol. The total binding was calculated using the radioactivity of [H]-Methylspiperone in the absence of the compounds of the present invention (vehicle). The Ki values were calculated from dose-response curves.
as §7

[3] = biological target: hERG channel (IKr) (Homo sapiens (Human), UniProt Q12809); assay: hERG test (whole cell patch clamp, IKr); assay type: cell-based; settings: human, CHO cells expressing hERG channel, pH 7.4, 3 μM, tail peak current
Excerpt: Test Example 10: hERG Test
For the purpose of assessing risk of an electrocardiogram QT interval prolongation of the compound of the present invention, effects of the compound of the present invention on delayed rectifier K+ current (IKr), which plays an important role in the ventricular repolarization process, was studied using CHO cells expressing human ether-a-go-go related gene (hERG) channel.
After a cell was retained at a membrane potential of −80 mV by whole cell patch clamp method using an automated patch clamp system (QPatch; Sophion Bioscience A/S) and gave a leak potential of −50 mV, IKr induced by depolarization pulse stimulation at +20 mV for 2 seconds and, further, repolarization pulse stimulation at −50 mV for 2 seconds, was recorded. After the generated current was stabilized, extracellular solution (NaCl: 145 mmol/L, KCl: 4 mmol/L, CaCl2): 2 mmol/L, MgCl2: 1 mmol/L, glucose: 10 mmol/L, HEPES (4-(2-hydroxyethyl)-1-piperazineethanesulfonic acid): 10 mmol/L, pH=7.4), in which the compound of the present invention had been dissolved at an objective concentration in the extracellular solution, was applied to the cell at room temperature for 7 minutes or more. From the recording IKr, an absolute value of the tail peak current was measured based on the current value at the resting membrane potential using analysis software (QPatch Assay software; Sophion Bioscience A/S). Further, the % inhibition of tail peak current for the compound of the present invention relative to the tail peak current after application of the solution (0.1% dimethyl sulfoxide solution) was calculated to assess influence of the compound of the present invention on IKr.

[4] = 1.2 nM [3H]-Methylspiperone, 120 min at 25° C.

Chain of human recombinant dopamine D3 receptor (P35462 whole entry): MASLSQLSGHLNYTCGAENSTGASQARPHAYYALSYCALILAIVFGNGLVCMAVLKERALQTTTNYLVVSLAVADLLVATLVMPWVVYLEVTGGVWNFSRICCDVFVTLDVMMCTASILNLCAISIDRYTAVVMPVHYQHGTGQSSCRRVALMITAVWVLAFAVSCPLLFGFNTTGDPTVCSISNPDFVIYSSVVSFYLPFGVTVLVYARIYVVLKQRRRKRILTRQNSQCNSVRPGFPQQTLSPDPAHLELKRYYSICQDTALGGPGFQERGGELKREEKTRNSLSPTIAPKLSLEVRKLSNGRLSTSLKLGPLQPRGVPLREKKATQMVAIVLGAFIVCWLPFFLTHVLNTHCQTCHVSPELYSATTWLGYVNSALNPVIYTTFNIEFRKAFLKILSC
Chain of hERG channel (IKr) (Q12809 whole entry): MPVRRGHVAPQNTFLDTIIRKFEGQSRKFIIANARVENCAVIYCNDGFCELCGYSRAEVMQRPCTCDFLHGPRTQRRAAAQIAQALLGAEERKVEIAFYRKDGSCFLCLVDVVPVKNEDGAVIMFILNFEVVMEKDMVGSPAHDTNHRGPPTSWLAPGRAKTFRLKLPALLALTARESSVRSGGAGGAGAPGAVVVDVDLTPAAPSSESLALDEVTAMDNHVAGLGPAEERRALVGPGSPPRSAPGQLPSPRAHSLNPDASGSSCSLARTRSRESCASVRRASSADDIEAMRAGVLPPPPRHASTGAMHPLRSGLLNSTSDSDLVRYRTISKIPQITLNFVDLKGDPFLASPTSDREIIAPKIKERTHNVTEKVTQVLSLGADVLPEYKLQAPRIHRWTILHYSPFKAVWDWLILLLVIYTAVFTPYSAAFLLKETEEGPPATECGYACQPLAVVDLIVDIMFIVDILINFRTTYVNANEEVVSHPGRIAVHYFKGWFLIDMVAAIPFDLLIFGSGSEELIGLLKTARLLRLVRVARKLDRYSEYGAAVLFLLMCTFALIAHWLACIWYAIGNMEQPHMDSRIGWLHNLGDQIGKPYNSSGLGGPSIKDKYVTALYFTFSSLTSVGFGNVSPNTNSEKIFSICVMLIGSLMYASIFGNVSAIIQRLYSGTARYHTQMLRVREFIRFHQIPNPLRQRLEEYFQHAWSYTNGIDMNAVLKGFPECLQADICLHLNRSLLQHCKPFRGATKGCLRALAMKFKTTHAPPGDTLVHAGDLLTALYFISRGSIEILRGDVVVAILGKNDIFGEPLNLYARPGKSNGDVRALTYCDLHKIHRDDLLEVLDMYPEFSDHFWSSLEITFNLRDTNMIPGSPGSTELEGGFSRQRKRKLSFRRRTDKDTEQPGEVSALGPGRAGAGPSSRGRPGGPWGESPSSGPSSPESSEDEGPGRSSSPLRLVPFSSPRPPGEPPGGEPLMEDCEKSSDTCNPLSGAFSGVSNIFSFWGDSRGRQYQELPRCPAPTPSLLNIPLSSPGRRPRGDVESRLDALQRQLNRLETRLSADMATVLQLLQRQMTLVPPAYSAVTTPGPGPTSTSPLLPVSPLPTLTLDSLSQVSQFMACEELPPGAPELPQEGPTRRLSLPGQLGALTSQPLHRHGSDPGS
Chain of human recombinant dopamine D2 receptor (P14416 whole entry): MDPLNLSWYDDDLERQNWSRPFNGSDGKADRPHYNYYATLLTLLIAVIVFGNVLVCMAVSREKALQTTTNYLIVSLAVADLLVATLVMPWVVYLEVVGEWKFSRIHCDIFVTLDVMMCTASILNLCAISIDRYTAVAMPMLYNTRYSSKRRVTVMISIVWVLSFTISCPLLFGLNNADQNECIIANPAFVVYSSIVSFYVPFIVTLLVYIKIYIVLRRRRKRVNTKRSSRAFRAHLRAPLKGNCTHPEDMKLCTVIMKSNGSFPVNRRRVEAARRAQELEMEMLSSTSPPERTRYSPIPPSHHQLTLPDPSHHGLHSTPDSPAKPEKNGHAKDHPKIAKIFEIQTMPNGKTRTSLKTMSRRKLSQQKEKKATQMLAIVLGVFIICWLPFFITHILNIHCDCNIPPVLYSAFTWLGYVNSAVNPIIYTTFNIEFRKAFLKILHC

Structure (SMILES)	Ki [1, 4] [nM]	Ki [2] [nM]	inhibition at 3 µM [3] [%]	Ki ([1]; [3H]-Methylspiperone 1.2 nM) [nM]
COC(CN1CCc2ccc(OCC(F)(F)F)nc2CC1)[C@H]1CC[C@H](NC(=O)Cc2cnc(C)o2)CC1 (single isomer, unassigned) [Example I-045]	1700	0.81	18.3	–
COC(CN1CCc2sc(OCC(C)(F)F)nc2C1)C1CC2(CC(NC(=O)c3cccc4nn(C)cc34)C2)C1 (single isomer, unassigned) [Example I-047]	110	0.058	13.6	–
Cn1cc2c(C(=O)N[C@H]3CC4(C3)C[C@](F)(CCN3CCc5nc(OCC(F)(F)F)sc5CC3)C4)cccc2n1 (single isomer, unassigned) [Example I-049]	310	0.33	36.8	–
CC(Oc1nc2c(s1)CCN(CC[C@H]1CC[C@H](NC(=O)c3cccc4nn(C)cc34)CC1)CC2)C(F)F (single isomer, unassigned) [Example I-112]	> 2200	0.12	23.5	–
Cc1ncc(CC(=O)N[C@H]2CC[C@H](CCN3CCc4sc(OC5CC(F)(F)C5)nc4C3)CC2)o1 [Example I-002]	–	0.47	30.3	–
Cc1ncc(CC(=O)N[C@H]2CC[C@H](CCN3CCc4ccc(CCC(F)(F)F)nc4CC3)CC2)cn1 [I′-16]	–	0.36	–	1800
Cc1cc(CC(=O)N[C@H]2CC[C@H](CCN3CCc4ccc(CCC(F)(F)F)nc4CC3)CC2)on1 [I′-17]	–	0.15	–	> 2300
Cn1cc(CC(=O)N[C@H]2CC[C@H](CCN3CCc4ccc(CCC(F)(F)F)nc4CC3)CC2)c(F)n1 [I′-18]	–	0.38	–	1000
Cn1ncc(CC(=O)N[C@H]2CC[C@H](CCN3CCc4ccc(CCC(F)(F)F)nc4CC3)CC2)c1F [I′-19]	–	0.36	–	1100
Cc1ncc(/C=C/C(=O)N[C@H]2CC[C@H](CCN3CCc4ccc(CCC(F)(F)F)nc4CC3)CC2)cn1 [I′-20]	–	0.38	–	260
Cc1cc(CC(=O)N[C@H]2CC[C@H](CCN3CCc4ccc(CCC(F)(F)F)nc4CC3)CC2)no1 [I′-21]	–	1	–	> 2300
Cn1ncc(CC(=O)N[C@H]2CC[C@H](CCN3CCc4nc(OCC(F)(F)F)sc4CC3)CC2)c1F [I′-22]	–	0.1	–	2000
Cn1ncc(CC(=O)N[C@H]2CC[C@](F)(CCN3CCc4nc(OCC(F)(F)F)sc4CC3)CC2)c1F [I′-23]	–	0.28	–	> 2200
Cn1cc(CC(=O)N[C@H]2CC[C@H](CCN3CCc4nc(OCC(F)(F)F)sc4CC3)CC2)c(F)n1 [I′-24]	–	0.17	–	630
Cn1cc(CC(=O)N[C@H]2CC[C@](F)(CCN3CCc4nc(OCC(F)(F)F)sc4CC3)CC2)c(F)n1 [I′-25]	–	0.29	–	730
Cn1ncc(CC(=O)N[C@H]2CC[C@H](CCN3CCc4nc(OCC(C)(F)F)sc4CC3)CC2)c1F [I′-26]	–	0.17	–	870
Cn1cc(CC(=O)N[C@H]2CC[C@H](CCN3CCc4nc(OCC(C)(F)F)sc4CC3)CC2)c(F)n1 [I′-27]	–	0.09	–	> 2200
Cn1ncc(CC(=O)N[C@H]2CC[C@H](CCN3CCc4nc(OCC(F)F)sc4CC3)CC2)c1F [I′-28]	–	0.21	–	1500
Cn1ncc(CC(=O)N[C@H]2CC[C@](F)(CCN3CCc4nc(OCC(F)F)sc4CC3)CC2)c1F [I′-29]	–	3.1	–	> 2200
Cn1cc(CC(=O)N[C@H]2CC[C@H](CCN3CCc4nc(OCC(F)F)sc4CC3)CC2)c(F)n1 [I′-30]	–	0.19	–	1600
Cn1cc(CC(=O)N[C@H]2CC[C@](F)(CCN3CCc4nc(OCC(F)F)sc4CC3)CC2)c(F)n1 [I′-31]	–	0.57	–	1300
